Here are results for 6 compounds from patent US8101774B2, “Ester derivatives and medicinal use thereof” (Japan Tobacco Inc., priority 2004, dated 2012).

Data set [1] can be described thus: Metabolic stability test in plasma. In kind it is in vitro ADME. Particulars: 37° C. As to the method: A sample dissolved in DMSO was added to plasma of human or animal species (mouse and hamster). The solutions were incubated at 37° C. for 0, 10 and 60 minutes, and acetonitrile containing formic acid (final concentration: 0.1%) was added thereto. The solutions were centrifuged, and the concentration of the sample (unchanged form) in the supernatant was determined by high performance liquid chromatography/mass spectrometry (LC/MS). Based on the data obtained, the remaining rate (%) was calculated according to the following equation. Remaining rate(%)=amount of sample 0, 10, or 60 minutes after incubation/amount of sample at zero time after incubation×100 With respect to the compounds obtained in Working Examples according to the present invention (Compounds 1-1 to 1-115, 2-1, 3-1, 3-2, and 4-1 to 4-4), the results of the remaining rate in human liver S9 and plasma are shown in Tables 28 to 32.

Data set [2] can be described thus: Stability test in buffer (pH 7.4). Type of data set: physicochemical. The conditions noted are these: 100 mM potassium phosphate buffer (pH 7.4):acetonitrile 7:3, 37° C. As to the method: In the tables, Buf. remaining rate was determined by stability test in buffer (pH 7.4) as described below. A sample dissolved in DMSO was mixed with a mixed solution of 100 mM potassium phosphate buffer and acetonitrile in the ratio of 7:3 (v/v). The mixture was incubated at 37° C. for 0, 10, and 60 minutes, and acetonitrile containing formic acid (final concentration: 0.1%) was added thereto. The solution was centrifuged, and the concentration of the sample (unchanged form) in the supernatant was determined by high performance liquid chromatography/mass spectrometry (LC/MS). Based on the data obtained, Buf. remaining rate (%) was calculated according to the following equation. Buf. remaining rate(%)=amount of sample 0, 10, or 60 minutes after incubation/amount of sample at zero time after incubation×100

Data set [3] concerns the target T1, Microsomal triglyceride transfer protein (MTP) from human small intestine microsome (Homo sapiens, UniProt P55157).
T1 construct: Human small intestine microsome was dialyzed against 10 mM phosphate buffer; tissue Tissue Transforming Technologies, Inc; host or cells: human small intestine microsome
In words: Inhibition test of interliposomal triglyceride (TG) transfer activity by MTP. In kind it is biochemical. The conditions noted are these: purified MTP from human small intestine microsome, 37° C., 1.5 hours. The method in brief: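 DEAE-purified human small intestine MTP (50 μL of 20 μg/mL) incubated 1.5 hours at 37° C with ^14C-triolein donor and unlabelled acceptor SUV liposomes in pH 7.4 Tris buffer with 0.5% BSA. Donor removed on DEAE cellulose; acceptor radioactivity counted, blank-corrected against DMSO control, giving percent inhibition and IC50.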

The nature of data set [4]: Metabolic stability test in liver S9. Particulars: human liver S9 2 mg protein/mL, 37° C. In kind it is in vitro ADME. On the procedure: Human liver S9 (final concentration: 2 mg protein/mL), was suspended in 100 mM potassium phosphate buffer (pH 7.4, containing β-nicotinamide adenine dinucleotide phosphate: 1.3 mM, D-glucose-6-phosphate: 3.3 mM, magnesium chloride: 3.3 mM, glucose-6-phosphate dehydrogenase: 0.4 U/mL). The suspension was mixed with a solution of a sample dissolved in DMSO. The solution was incubated at 37° C. for 0, 10 and 60 minutes, and an acetonitrile containing formic acid (final concentration: 0.1%) was added thereto. The solutions were centrifuged, and the concentration of the sample (unchanged form) in the supernatant was determined by high performance liquid chromatography/mass spectrometry (LC/MS). Based on the data obtained, remaining rate (%) was calculated according to the following equation. Remaining rate(%)=amount of sample 0, 10, or 60 minutes after incubation/amount of sample at zero time after incubation×100

T1 sequence (P55157 19-894): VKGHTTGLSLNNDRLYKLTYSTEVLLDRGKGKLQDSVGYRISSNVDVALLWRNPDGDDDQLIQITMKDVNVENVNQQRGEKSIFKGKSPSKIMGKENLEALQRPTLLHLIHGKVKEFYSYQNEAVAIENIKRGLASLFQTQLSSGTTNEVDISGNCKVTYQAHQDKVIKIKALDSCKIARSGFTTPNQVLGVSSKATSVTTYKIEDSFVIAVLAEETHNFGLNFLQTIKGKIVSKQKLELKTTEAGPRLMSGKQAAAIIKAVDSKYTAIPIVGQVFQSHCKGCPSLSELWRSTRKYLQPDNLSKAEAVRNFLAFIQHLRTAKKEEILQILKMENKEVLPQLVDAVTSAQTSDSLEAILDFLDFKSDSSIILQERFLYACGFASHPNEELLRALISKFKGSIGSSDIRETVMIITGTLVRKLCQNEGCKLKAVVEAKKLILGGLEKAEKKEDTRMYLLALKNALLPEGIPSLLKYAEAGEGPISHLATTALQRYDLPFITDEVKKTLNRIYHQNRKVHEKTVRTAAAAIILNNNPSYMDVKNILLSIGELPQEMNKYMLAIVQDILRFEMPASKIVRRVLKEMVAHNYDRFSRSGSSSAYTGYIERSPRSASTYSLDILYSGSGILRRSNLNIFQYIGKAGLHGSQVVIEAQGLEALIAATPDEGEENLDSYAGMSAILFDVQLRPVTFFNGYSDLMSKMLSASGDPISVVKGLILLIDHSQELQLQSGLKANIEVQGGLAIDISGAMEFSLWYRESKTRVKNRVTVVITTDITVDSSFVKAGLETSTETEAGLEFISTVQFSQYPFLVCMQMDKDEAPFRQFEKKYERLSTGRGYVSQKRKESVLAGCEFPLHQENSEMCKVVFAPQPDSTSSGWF
T1 sequence (P07237 18-508 partner): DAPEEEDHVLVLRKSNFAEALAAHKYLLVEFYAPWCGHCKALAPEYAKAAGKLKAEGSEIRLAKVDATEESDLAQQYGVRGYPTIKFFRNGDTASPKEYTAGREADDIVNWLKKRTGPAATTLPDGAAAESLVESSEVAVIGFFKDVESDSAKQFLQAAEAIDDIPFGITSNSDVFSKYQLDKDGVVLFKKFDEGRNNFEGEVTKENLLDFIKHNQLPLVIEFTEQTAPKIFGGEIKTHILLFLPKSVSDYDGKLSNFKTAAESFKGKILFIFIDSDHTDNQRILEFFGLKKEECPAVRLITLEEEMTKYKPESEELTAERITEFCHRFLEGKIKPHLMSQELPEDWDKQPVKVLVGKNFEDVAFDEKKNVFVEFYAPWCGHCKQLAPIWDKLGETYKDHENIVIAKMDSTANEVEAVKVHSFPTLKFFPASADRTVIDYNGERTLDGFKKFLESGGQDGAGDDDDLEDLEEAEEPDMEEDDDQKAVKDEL

`COC(=O)c1ccc(OC(=O)CCCc2ccc(NC(=O)c3ccccc3-c3ccc(C(F)(F)F)cc3)c(C(=O)N(C)C)c2)c(C)c1` [Compound 1-66, 4-[4-(3-dimethylcarbamoyl-4-{(4′-trifluoromethylbiphenyl-2-carbonyl)amino}phenyl)butyryloxy]-3-methylbenzoic acid methyl ester]: the “Remaining rate in human plasma (%/60 min)” value in data set [1] was 8%. In addition, the “Buf. remaining rate (%/10 min)” value in data set [2] (10 min) worked out at 101%. The “Buf. remaining rate (%/60 min)” value in data set [2] (60 min) is 103%. Further, the IC50 in data set [3] was less than 10 nM. Besides, in data set [4] (10 min), the “Remaining rate in human liver S9 (%/10 min)” value amounted to 3%. In addition, in data set [4] (60 min), the “Remaining rate in human liver S9 (%/60 min)” value is 0%. In data set [3], `COC(=O)c1ccc(OC(=O)CN(C)Cc2ccc(NC(=O)c3ccccc3-c3ccc(C(F)(F)F)cc3)c(C(=O)N(C)C)c2)cc1` [Compound 2-1, 4-[2-({3-dimethylcarbamoyl-4-[(4′-trifluoromethylbiphenyl-2-carbonyl)amino]benzyl}methylamino)acetoxy]benzoic acid methyl ester] registered an IC50 of 10 to 100 nM.

In turn, `CCC(=O)c1ccc(OC(=O)CCCc2ccc(NC(=O)c3ccccc3-c3ccc(C(F)(F)F)cc3)c(C(=O)N(C)C)c2)cc1` [Compound 1-88, 4-(3-dimethylcarbamoyl-4-{(4′-trifluoromethylbiphenyl-2-carbonyl)amino}phenyl)butyric acid 4-propionylphenyl ester] yielded an IC50 in data set [3] of less than 10 nM. In the case of `CN(C)C(=O)c1cc(CCCC(=O)Oc2ccc(C(=O)OC3CCCc4ccccc43)cc2)ccc1NC(=O)c1ccccc1-c1ccc(C(F)(F)F)cc1` (centres unmarked) [Compound 1-108, 4-[4-(3-dimethylcarbamoyl-4-{(4′-trifluoromethylbiphenyl-2-carbonyl)amino}phenyl)butyryloxy]benzoic acid 1,2,3,4-tetrahydronaphthalen-1-yl ester], the IC50 in data set [3] was less than 10 nM. Still for that read-out and setting: to `COC(=O)c1cc(OC)c(OC(=O)CCCc2ccc(NC(=O)c3ccc(C)nc3-c3ccc(C(F)(F)F)cc3)c(C(=O)N(C)C)c2)c(OC)c1` [Compound 1-39, 4-[4-(3-dimethylcarbamoyl-4-{[6-methyl-2-(4-trifluoromethylphenyl)pyridine-3-carbonyl]amino}phenyl)butyryloxy]-3,5-dimethoxybenzoic acid methyl ester] belongs less than 10 nM; to `CC(=O)N1CCC(OC(=O)c2ccc(OC(=O)CCCc3ccc(NC(=O)c4ccccc4-c4ccc(C(F)(F)F)cc4)c(C(=O)N(C)C)c3)cc2)CC1` [Compound 1-109, 4-[4-(3-dimethylcarbamoyl-4-{(4′-trifluoromethylbiphenyl-2-carbonyl)amino}phenyl)butyryloxy]benzoic acid 1-acetylpiperidin-4-yl ester], less than 10 nM.

For orientation: IC50 means the concentration at which inhibition is half-maximal. A high value points to lower potency.
